{
  "source": "patent US20150218213A1",
  "about": "“INHIBITORS OF ALPHA6 INTEGRIN/E-CADHERIN COMPLEX” (Università degli Studi di Torino, priority 2012, published 2015)",
  "key": {"[1]": {"test_system": "NCI-H630 cells in which ITGA6, CDH1 or both mRNAs were silenced", "test": "Cell adhesion to microwells coated with peptides and proteins", "type": "cell-based, human", "description": "(§1) (FIG. 10A, […]) The receptor side: α6 integrin and E-cadherin are involved in the adhesion of metastatic CRC cells to the liver. HepG2 and NCI-H630 cells were incubated on 10-μm frozen sections of grossly normal human liver and adhered cells were fixed, stained and counted under a light microscope at 20× magnification. Photomicrographs representative of cell numbers (120 minutes' incubation) and morphology (5 days' incubation) are shown. The dotted line indicates a micrometastasis-like structure integrated into the hepatic tissue; arrowheads point to cell aggregates. Tissues were counterstained with hematoxylin (FIG. 10A). […] The same cells were evaluated for their capacity to adhere to the […] […] After 48 hours, cells on the lower side of the transwell membranes were fixed, stained and counted under a light microscope at 5× magnification. […] (SEQ ID NO: 14) or control peptide; after 30 minutes, adhered cells were fixed, stained and counted under a light microscope at 5× magnification. For NCI-H630, adhesion was evaluated on liver sections from 27 patients (Patient Ids: P29, P30, P33, P34, P35, P36, P56-76) and results are shown as the ratio of attached cells in the presence of […] […] In FIG. 10A-D, FIG. 10F and FIG. 10G, differences in the experimental points were evaluated for their statistical significance by the use of ANOVA followed by Bonferroni's post-test. […]"}, "[2]": {"test_system": "β4 integrin subunit", "test": "Affinity purification of liver metastasis lysates on column-immobilized peptide, ELISA and phage binding of fractions", "conditions": "lysates of human liver metastases, in comparison with the controls; FIG. 8", "description": "(FIG. 8A, FIG. 8B) Isolation of […]- (SEQ ID NO: 14) targeted integrin partners. To identify the molecular partner of α6 integrin in the peptide-targeted complex, synthetic […] (SEQ ID NO. 14) was immobilized on column-packed diaminodipropylamine-agarose and successively loaded with 30 mg of total protein from 7 pooled liver metastases secondary to CRCs. Protein fractions were collected after sequential incubation with high salt buffer (for the elution of unspecific proteins), CARAC-peptide (SEQ ID NO. 43) (as a negative control) and […]-peptide (SEQ ID NO. 14) (target elution). Protein amounts in collected fractions were followed by reading their OD at 280 nm (FIG. 8A). […] Control (salt, control peptide) and targeted ([…]—1, —2, and —6) (SEQ ID NO. 14) protein fractions (500 ng each) were evaluated for the presence of specific integrin subunits by an ELISA assay (FIG. 8D).\nFor the characterization of proteins targeted by […] […] Protein amounts in collected fractions were followed by reading their OD at 280 nm, and selected fractions were concentrated by the use of Microcon centrifugal filter devices with cut-off 10,000 (Millipore) to remove residual synthetic peptides. Proteins were quantified with the Coomassie (Bradford) Protein Assay Kit (Pierce), and 500 ng of each sample was evaluated for the presence of specific integrin subunits with a standard ELISA assay. […]"}, "[3]": {"test_system": "U293 cells stably overexpressing E-cadherin, α6 integrin or both", "test": "Cell proliferation assay (crystal violet)", "type": "cell-based, human", "conditions": "100 μM peptide, complete (10% FCS) medium; FIG. 12", "description": "U293 cells stably overexpressing E-cadherin, α6 integrin or both were grown in complete (10% FCS) culture medium in the presence of either the control or […] (SEQ ID NO: 14) peptide. At 24 hour time points, cells were fixed and stained with crystal violet; their numbers were estimated by spectrophotometric evaluation. Results are shown as mean±standard deviation for each experimental point in 2 independent experiments.\nTo test the effects of peptides on cell proliferation, we seeded 2×10^4 cells per well in a 24-well plate, in the presence of either control or […] (SEQ ID NO: 14) peptide (100 μM). At the indicated time points, cells were fixed in glutaraldehyde, stained in crystal violet, and solubilized in 10% acetic acid. Cell growth was evaluated by absorbance at 590 nm in a microplate reader (Perkin Elmerm Waltham, Mass.). A calibration curve was set up with known numbers of cells and a linear correlation between absorbance and cell counts was established up to 5×10^5 cells/well."}, "[4]": {"test_system": "primary CRC cell lines", "test": "Liver adhesion assay on frozen sections of grossly normal human liver", "type": "cell-based", "description": "(§2) (FIG. 10A, […]) The receptor side: α6 integrin and E-cadherin are involved in the adhesion of metastatic CRC cells to the liver. HepG2 and NCI-H630 cells were incubated on 10-μm frozen sections of grossly normal human liver and adhered cells were fixed, stained and counted under a light microscope at 20× magnification. Photomicrographs representative of cell numbers (120 minutes' incubation) and morphology (5 days' incubation) are shown. The dotted line indicates a micrometastasis-like structure integrated into the hepatic tissue; arrowheads point to cell aggregates. Tissues were counterstained with hematoxylin (FIG. 10A). NCI-H630 cells silenced for ITGA6, CDH1 or both of these mRNAs were challenged in the same assay (FIG. 10B). Results are shown as mean±standard deviation for each experimental point in 3 independent experiments. (FIG. 10C) The ligand side: the […] (SEQ ID NO: 14) motif and angiopoietin-like 6 interact specifically with cells expressing the receptor proteins. Phage binding was investigated on NCI-H630 cells in which ITGA6, CDH1 or both mRNAs were silenced. Results, normalized to fd-tet binding, are shown as mean±standard deviation of 4 independent experiments. The same cells were evaluated for their capacity to adhere to the […] […] After 48 hours, cells on the lower side of the transwell membranes were fixed, stained and counted under a light microscope at 5× magnification. […] (SEQ ID NO: 14) or control peptide; after 30 minutes, adhered cells were fixed, stained and counted under a light microscope at 5× magnification. For NCI-H630, adhesion was evaluated on liver sections from 27 patients (Patient Ids: P29, P30, P33, P34, P35, P36, P56-76) and results are shown as the ratio of attached cells in the presence of […] […] In FIG. 10A-D, FIG. 10F and FIG. 10G, differences in the experimental points were evaluated for their statistical significance by the use of ANOVA followed by Bonferroni's post-test. […] Fourteen days after surgery, animals were sacrificed and livers were explanted and photographed for the quantification of external tumor areas. […]"}, "[5]": {"test_system": "NCI-H630 cells", "test": "Liver adhesion assay on frozen sections of grossly normal human liver", "type": "cell-based", "conditions": "liver sections from 27 patients, versus control peptide, 30 minutes", "description": "as §2"}, "[6]": {"test_system": "LS-174T cells", "test": "Hepatic colonization model, intrahepatic injection of CRC cells with soluble peptide", "type": "in vivo, CD-1 nude mice", "conditions": "LS-174T intrahepatic, 14 days", "description": "as §1"}, "[7]": {"test_system": "HCCM-1544 tumor and CRC cell lines (HCT-116m, SW-48, DLD-1, LS-174T)", "test": "Liver homing model, intrasplenic implantation of CRC cells with soluble peptide", "type": "in vivo, CD-1 nude mice", "conditions": "100 μM peptide co-injected, significant in all models except DLD-1", "from_the_text": "To obtain an in vivo model of metastatic CRC, we implanted the patient-derived HCCM-1544 tumor as well as different CRC cell lines (HCT-116m, SW-48, DLD-1 and LS-174T) intrasplenically into CD-1 nude mice (2×10^6/mouse). To evaluate the effect of […] (SEQ ID NO: 14) on liver metastasis, we injected cells either in medium alone (vehicle) or in the presence of the soluble peptide ([…]) (SEQ ID NO: 14). At the indicated time points, mice were euthanized and their livers and spleens were explanted. Livers were photographed for the quantification of external metastatic areas. Representative pictures of whole livers from 2 mice/group are shown for macroscopic evaluation of tumor morphology; the indicated p-values are referred to statistical analysis performed either with Fisher's exact test (in black) or t-test (in red). Spleen (primary tumor) and liver (metastasis) samples were OCT-frozen, cut in 10-μm sections and immunostained with anti-α6 integrin and anti-E-cadherin antibodies, followed by imaging with a confocal microscope. […]\nSix-week female CD1-nude mice were purchased from Charles River (Lecco, Italy). […] Mice were strictly monitored until completely awake, and oral ampicillin was administered for 5 days following the surgery. […] External metastatic areas were quantified using ImageJ software."}, "[8]": {"test_system": "U293 cells stably transduced with α6 integrin, E-cadherin or both", "test": "Transwell migration toward an angiopoietin-like 6 gradient", "type": "cell-based, human", "conditions": "48 hours", "description": "as §1"}},
  "data": [
    {"molecule": "CGIYRLRSC (Peptide inhibiting the E-cadherin/alpha6 integrin complex) [Targeting synthetic LRS-motif peptide, from New England Peptides]", "values": [
      {"measurement": "cell adherence to microwells coated with peptide", "setting": "[1]; NCI-H630 with ITGA6 or both mRNAs silenced, most pronounced with both downmodulated", "value": "impaired adherence"},
      {"measurement": "integrin subunit content of peptide- and phage-targeted protein fractions", "setting": "[2]", "value": "substantial enrichment in the β4 subunit"},
      {"measurement": "cell proliferation", "setting": "[3]", "value": "no effects"},
      {"measurement": "adhesiveness on hepatic tissues", "setting": "[4]; HCT-116m, HT-29, SW-48 and DLD-1", "value": "significantly inhibited"},
      {"measurement": "adhesion to normal hepatic tissues", "setting": "[4]; non-metastatic HCT-116 cells", "value": "not influenced"},
      {"measurement": "cell adhesion to human liver sections", "setting": "[5]", "value": "significant decrease in cell adhesion"},
      {"measurement": "liver tumors (external tumor areas)", "setting": "[6]; 100 μM peptide co-injected", "value": "significant reduction of liver tumors"},
      {"measurement": "overall morphology and levels of receptor complex in the tumors", "setting": "[6]", "value": "unchanged"},
      {"measurement": "homing of CRC cells to the liver (liver metastases)", "setting": "[7]", "value": "diminished homing of CRC cells to the liver"}
    ]},
    {"molecule": "angiopoietin-like 6: secreted factor; recombinant protein from Alexis Biochemicals, or produced by transduced U293 cells (protein) RAGAPRCTYTFVLPPQKFTGAVCWSGPASTRATPEAANASELAALRMRVGRHEELLRELQRLAAADGAVAGEVRALRKESRGLSARLGQLRAQLQHEAGPGAGPGADLGAEPAAALALLGERVLNASAEAQRAAARFHQLDVKFRELAQLVTQQSSLIARLERLCPGGAGGQQQVLPPPPLVPVVPVRLVGSTSDTSRMLDPAPEPQRDQTQRQQEPMASPMPAGHPAVPTKPVGPWQDCAEARQAGHEQSGVYELRVGRHVVSVWCEQQLEGGGWTVIQRRQDGSVNFFTTWQHYKAGFGRPDGEYWLGLEPVYQLTSRGDHELLVLLEDWGGRGARAHYDGFSLEPESDHYRLRLGQYHGDAGDSLSWHNDKPFSTVDRDRDSYSGNCALYQRGGWWYHACAHSNLNGVWHHGGHYRSRYQDGVYWAEFRGGAYSLRKAAMLIRPLKL", "values": [
      {"measurement": "cell binding to microwells coated with recombinant protein", "setting": "[1]; NCI-H630 cells in which both mRNAs were silenced", "value": "significantly lower binding"},
      {"measurement": "cell migration toward ligand gradient", "setting": "[8]; U293 cells expressing both α6 integrin and E-cadherin", "value": "significantly stimulated"},
      {"measurement": "cell migration toward ligand gradient", "setting": "[8]; U293 cells with either α6 integrin or E-cadherin", "value": "not influenced"}
    ]}
  ]
}
